Measured values taken from US20140106967A1, “AUXIN PLANT GROWTH REGULATORS” (The Governors of The University of Alberta, priority 2011, published 2014).

Tested on: pea plants cv. 'Carneval'
Assay: Growth chamber experiment 2, pea 'Carneval' sprayed with 4-ME-IAA: peduncle/pedicel growth and seed yield, with or without heat stress (Tables P3-P12)
Type: in vivo, Pisum sativum L.
Description: For growth chamber experiment, seeds of ‘Carneval’ were planted at an approximate depth of 2.5 cm in 3-L plastic pots (4 seeds per pot and thinned to 2 plants per pot after approximately 2 weeks) in 1:1 Sunshine #4 potting mix (Sun Gro Horticulture, Vancouver, Canada) and sand. The experiment was arranged in a completely randomized design and grown at the University of Alberta in a growth chamber set at 19° C./17° C. (day/night) with a 16/8-h photoperiod under cool-white fluorescent lights (54W/835/HO high fluorescent bulbs, Phillips, Holland; 350 μE m^2 s^−2). For the heat stress treatment, plants were placed in a separate growth chamber with a 16/8-h photoperiod under cool-white fluorescent lights (F54/15/835/HO high fluorescent bulbs, Phillips, Holland) for 4 days where the temperature was cycled over a 24 hr period as follows: 33° C. air temperature for 6 hours per day (between 11:00 and 17:00 hrs) for 4 days during the light cycle; the remainder of the light cycle was maintained at a 22° C. air temperature; the dark cycle was maintained at 19° C. After the 4 day heat treatment, the plants were returned to the same growth chamber they were originally grown in, where they were taken to maturity.
For experiment 2, aqueous 4-methyl-indole-3-acetic acid (4-ME-IAA) solutions at 1×10^−7, 1×10^−6, 1×10^−5, or 1×10^−4 M in 0.1% (v/v) Tween 80 or aqueous 0.1% (v/v) Tween 80 (control) were applied as a spray to the entire plant to cover when the first flowering node of the main stem was near or at anthesis. In addition to the application at the timing cited above, one application of 4-ME-IAA at 1×10^−6 M or 1×10^−5 M was made when the floral buds were tightly clustered inside the stipule leaves at the stem apex (floral buds not visible outside of stipule leaves; designated the ‘Early’ treatment). In the heat stress treatment, the hormone or control treatment application was completed 16 hrs prior to the initiation of the first heat-stress cycle. The length and diameter (measured mid-length) of the lower and upper peduncles and pedicels of the inflorescence with two pods (or the lower peduncle and pedicel if a single pod node) at the first, second, third and fourth flowering nodes of the main stem of pea plants were determined for hormone-treated and control plants. Standard error of the mean (SE) was calculated for the means of all data for a measure of statistical significance in comparing treatment means.

[1] = 1×10^−6 M, first flowering node, heat stress (33° C. 6 h/day, 4 days)
[2] = 1×10^−6 M, first flowering node, no heat stress
[3] = 1×10^−6 M, fourth flowering node, heat stress (33° C. 6 h/day, 4 days)
[4] = 1×10^−6 M, fourth flowering node, no heat stress
[5] = 1×10^−6 M, heat stress (33° C. 6 h/day, 4 days)
[6] = 1×10^−6 M, second flowering node, heat stress (33° C. 6 h/day, 4 days)
[7] = 1×10^−6 M, second flowering node, no heat stress
[8] = 1×10^−6 M, third flowering node, heat stress (33° C. 6 h/day, 4 days)
[9] = 1×10^−6 M, third flowering node, no heat stress
[10] = 1×10^−7 M, applied near or at anthesis, no heat stress
[11] = 1×10^−7 M, first flowering node, heat stress (33° C. 6 h/day, 4 days)
[12] = 1×10^−7 M, first flowering node, no heat stress
[13] = 1×10^−7 M, fourth flowering node, heat stress (33° C. 6 h/day, 4 days)
[14] = 1×10^−7 M, fourth flowering node, no heat stress
[15] = 1×10^−7 M, heat stress (33° C. 6 h/day, 4 days)
[16] = 1×10^−7 M, second flowering node, heat stress (33° C. 6 h/day, 4 days)
[17] = 1×10^−7 M, second flowering node, no heat stress
[18] = 1×10^−7 M, third flowering node, heat stress (33° C. 6 h/day, 4 days)
[19] = 1×10^−7 M, third flowering node, no heat stress
[20] = Early treatment (tight floral bud stage) 1×10^−5 M, no heat stress
[21] = Early treatment (tight floral bud stage) 1×10^−6 M, no heat stress

Structure (SMILES): Cc1cccc2[nH]cc(CC(=O)O)c12 [4-ME-IAA, 4-methyl-indole-3-acetic acid]
- Lower Peduncle diameter [1]: 1.38 ± 0.08 mm
- Upper Pedicel Length [1]: 8.29 ± 0.18 mm
- Upper Pedicel diameter [1]: 1.43 ± 0.06 mm
- Upper Peduncle Length [1]: 16.71 ± 1.55 mm
- Upper Peduncle diameter [1]: 1.19 ± 0.07 mm
- Lower Pedicel Length [2]: 9.40 ± 0.27 mm
- Lower Pedicel diameter [2]: 1.70 ± 0.04 mm
- Lower Peduncle Length [2]: 75.00 ± 4.00 mm
- Lower Peduncle diameter [2]: 1.65 ± 0.03 mm
- Upper Pedicel Length [2]: 9.40 ± 0.27 mm
- Upper Pedicel diameter [2]: 1.54 ± 0.04 mm
- Upper Peduncle Length [2]: 20.30 ± 1.54 mm
- Upper Peduncle diameter [2]: 1.37 ± 0.05 mm
- Lower Pedicel Length [3]: 7.40 ± 0.24 mm
- Lower Pedicel diameter [3]: 1.49 ± 0.11 mm
- Lower Peduncle Length [3]: 26.80 ± 4.55 mm
- Lower Peduncle diameter [3]: 1.25 ± 0.06 mm
- Upper Pedicel Length [3]: 8.00 mm
- Upper Pedicel diameter [3]: 1.46 mm
- Upper Peduncle Length [3]: 15.00 mm
- Upper Peduncle diameter [3]: 1.33 mm
- Lower Pedicel Length [4]: 8.80 ± 0.25 mm
- Lower Pedicel diameter [4]: 1.34 ± 0.03 mm
- Lower Peduncle Length [4]: 38.00 ± 3.63 mm
- Lower Peduncle diameter [4]: 1.38 ± 0.05 mm
- Upper Pedicel Length [4]: 8.33 ± 0.29 mm
- Upper Pedicel diameter [4]: 1.24 ± 0.05 mm
- Upper Peduncle Length [4]: 16.67 ± 0.69 mm
- Upper Peduncle diameter [4]: 1.16 ± 0.03 mm
- Ratio of seed number on main stem to lateral stems [5]: 2.0 ± 0.5
- Seed number plant [5]: 46.8 ± 3.3
- Seed weight per per plant [5]: 12.9 ± 0.9 g
- Weight per seed [5]: 0.277 ± 0.005 g
- Lower Pedicel Length [6]: 8.80 ± 0.36 mm
- Lower Pedicel diameter [6]: 1.47 ± 0.05 mm
- Lower Peduncle Length [6]: 47.10 ± 3.42 mm
- Lower Peduncle diameter [6]: 1.28 ± 0.06 mm
- Upper Pedicel Length [6]: 8.14 ± 0.14 mm
- Upper Pedicel diameter [6]: 1.43 ± 0.04 mm
- Upper Peduncle Length [6]: 16.86 ± 1.01 mm
- Upper Peduncle diameter [6]: 1.20 ± 0.07 mm
- Lower Pedicel Length [7]: 9.4 ± 0.27 mm
- Lower Pedicel diameter [7]: 1.51 ± 0.04 mm
- Lower Peduncle Length [7]: 58.20 ± 5.41 mm
- Lower Peduncle diameter [7]: 1.51 ± 0.04 mm
- Upper Pedicel Length [7]: 9.20 ± 0.33 mm
- Upper Pedicel diameter [7]: 1.47 ± 0.04 mm
- Upper Peduncle Length [7]: 19.00 ± 0.60 mm
- Upper Peduncle diameter [7]: 1.26 ± 0.02 mm
- Lower Pedicel Length [8]: 7.90 ± 0.28 mm
- Lower Pedicel diameter [8]: 1.43 ± 0.05 mm
- Lower Peduncle Length [8]: 34.50 ± 2.73 mm
- Lower Peduncle diameter [8]: 1.33 ± 0.05 mm
- Upper Pedicel Length [8]: 8.60 ± 0.24 mm
- Upper Pedicel diameter [8]: 1.34 ± 0.04 mm
- Upper Peduncle Length [8]: 15.80 ± 1.11 mm
- Upper Peduncle diameter [8]: 1.17 ± 0.03 mm
- Lower Pedicel Length [9]: 9.00 ± 0.30 mm
- Lower Pedicel diameter [9]: 1.39 ± 0.04 mm
- Lower Peduncle Length [9]: 45.90 ± 4.3 mm
- Lower Peduncle diameter [9]: 1.49 ± 0.04 mm
- Upper Pedicel Length [9]: 9.00 ± 0.29 mm
- Upper Pedicel diameter [9]: 1.31 ± 0.04 mm
- Upper Peduncle Length [9]: 18.00 ± 0.96 mm
- Upper Peduncle diameter [9]: 1.17 ± 0.02 mm
- Ratio of seed number on main stem to lateral stems [10]: 3.0 ± 0.4
- Seed number per plant [10]: 63.5 ± 6.8
- Seed weight per plant [10]: 15.5 ± 1.6 g
- Weight per seed [10]: 0.245 ± 0.004 g
- increase in seed yield (seed weight per plant) vs control [10]: 78%
- Lower Pedicel Length [11]: 9.40 ± 0.34 mm
- Lower Pedicel diameter [11]: 1.73 ± 0.04 mm
- Lower Peduncle Length [11]: 68.40 ± 5.39 mm
- Lower Peduncle diameter [11]: 1.72 ± 0.05 mm
- Upper Pedicel Length [11]: 9.00 ± 0.37 mm
- Upper Pedicel diameter [11]: 1.67 ± 0.06 mm
- Upper Peduncle Length [11]: 18.11 ± 0.59 mm
- Upper Peduncle diameter [11]: 1.45 ± 0.08 mm
- Lower Pedicel Length [12]: 9.30 ± 0.26 mm
- Lower Pedicel diameter [12]: 1.65 ± 0.04 mm
- Lower Peduncle Length [12]: 67.10 ± 5.30 mm
- Lower Peduncle diameter [12]: 1.59 ± 0.04 mm
- Upper Pedicel Length [12]: 9.20 ± 0.20 mm
- Upper Pedicel diameter [12]: 1.52 ± 0.03 mm
- Upper Peduncle Length [12]: 19.80 ± 1.08 mm
- Upper Peduncle diameter [12]: 1.27 ± 0.05 mm
- Lower Pedicel Length [13]: 7.50 ± 0.56 mm
- Lower Pedicel diameter [13]: 1.49 ± 0.05 mm
- Lower Peduncle Length [13]: 38.67 ± 3.18 mm
- Lower Peduncle diameter [13]: 1.58 ± 0.06 mm
- Upper Pedicel Length [13]: 8.00 ± 0.58 mm
- Upper Pedicel diameter [13]: 1.39 ± 0.15 mm
- Upper Peduncle Length [13]: 17.00 ± 1.00 mm
- Upper Peduncle diameter [13]: 1.30 ± 0.06 mm
- Lower Pedicel Length [14]: 9.57 ± 0.37 mm
- Lower Pedicel diameter [14]: 1.37 ± 0.03 mm
- Lower Peduncle Length [14]: 44.00 ± 3.22 mm
- Lower Peduncle diameter [14]: 1.37 ± 0.03 mm
- Upper Pedicel Length [14]: 8.86 ± 0.55 mm
- Upper Pedicel diameter [14]: 1.25 ± 0.04 mm
- Upper Peduncle Length [14]: 18.57 ± 0.61 mm
- Upper Peduncle diameter [14]: 1.12 ± 0.03 mm
- Ratio of seed number on main stem to lateral stems [15]: 1.2 ± 0.2
- Seed number plant [15]: 55.9 ± 5.9
- Seed weight per per plant [15]: 15.3 ± 1.7 g
- Weight per seed [15]: 0.273 ± 0.010 g
- increase in seed number per plant over control (1×10^−7 M, mild heat stress): 30%
- increase in seed weight per plant over control (1×10^−7 M, mild heat stress): 29%
- Lower Pedicel Length [16]: 8.78 ± 0.28 mm
- Lower Pedicel diameter [16]: 1.69 ± 0.06 mm
- Lower Peduncle Length [16]: 62.00 ± 2.88 mm
- Lower Peduncle diameter [16]: 1.69 ± 0.05 mm
- Upper Pedicel Length [16]: 8.50 ± 0.22 mm
- Upper Pedicel diameter [16]: 1.55 ± 0.07 mm
- Upper Peduncle Length [16]: 17.00 ± 0.73 mm
- Upper Peduncle diameter [16]: 1.41 ± 0.05 mm
- Lower Pedicel Length [17]: 9.3 ± 0.30 mm
- Lower Pedicel diameter [17]: 1.57 ± 0.05 mm
- Lower Peduncle Length [17]: 55.80 ± 4.61 mm
- Lower Peduncle diameter [17]: 1.57 ± 0.03 mm
- Upper Pedicel Length [17]: 9.20 ± 0.29 mm
- Upper Pedicel diameter [17]: 1.48 ± 0.04 mm
- Upper Peduncle Length [17]: 19.00 ± 0.76 mm
- Upper Peduncle diameter [17]: 1.25 ± 0.02 mm
- Lower Pedicel Length [18]: 8.13 ± 0.40 mm
- Lower Pedicel diameter [18]: 1.70 ± 0.06 mm
- Lower Peduncle Length [18]: 46.13 ± 2.75 mm
- Lower Peduncle diameter [18]: 1.61 ± 0.06 mm
- Upper Pedicel Length [18]: 8.20 ± 0.37 mm
- Upper Pedicel diameter [18]: 1.46 ± 0.11 mm
- Upper Peduncle Length [18]: 18.60 ± 0.98 mm
- Upper Peduncle diameter [18]: 1.31 ± 0.07 mm
- Lower Pedicel Length [19]: 9.44 ± 0.18 mm
- Lower Pedicel diameter [19]: 1.46 ± 0.04 mm
- Lower Peduncle Length [19]: 48.44 ± 2.5 mm
- Lower Peduncle diameter [19]: 1.42 ± 0.05 mm
- Upper Pedicel Length [19]: 9.00 ± 0.33 mm
- Upper Pedicel diameter [19]: 1.26 ± 0.05 mm
- Upper Peduncle Length [19]: 18.38 ± 1.10 mm
- Upper Peduncle diameter [19]: 1.07 ± 0.03 mm
- number of inflorescences with two pods at the fourth flowering node (1×10^−7 to 1×10^−4 M, no heat stress, control 10%): 70-90 % of the plants
- number of inflorescences with 2 pods at the third flowering node (1×10^−7 to 1×10^−4 M, no heat stress, control 20%): 80-100 % of the plants
- increase in seed yield vs control ('Early' treatment 1×10^−6 M): 109%
- Ratio of seed number on main stem to lateral stems [20]: 1.5 ± 0.2
- Seed number per plant [20]: 64.8 ± 5.2
- Seed weight per plant [20]: 16.2 ± 1.3 g
- Weight per seed [20]: 0.252 ± 0.006 g
- Ratio of seed number on main stem to lateral stems [21]: 1.6 ± 0.1
- Seed number per plant [21]: 73.8 ± 5.9
- Seed weight per plant [21]: 18.2 ± 1.4 g
- Weight per seed [21]: 0.248 ± 0.006 g
